# Reference: patent publication US20230094176A1, “COMPOUNDS AND METHODS FOR IMPROVING IMPAIRED ENDOGENOUS FIBRINOLYSIS USING HISTONE DEACETYLASE INHIBITORS” (Cereno Scientific AB, priority 2011, published 2023)
# Assays:
# t-PA mRNA in HUVECs = assay: C100: dose giving a 100% increase of t-PA mRNA in HUVEC (24 h); format: cell-based, human
# Method: HUVECs are treated with different concentrations of first generation hydroxamates (TSA), second generation hydroxamates (Givinostat, Vorinostat, Belinostat, Panobinostat, SB939, PCI24781), benzamides (Mocetinostat, Entinostat) or short chain fatty acids (SCFA, Butyrate, Phenylbutyrate) for 24 h and t-PA mRNA was measured. The doses giving a 100% increase of t-PA mRNA (C100) was determined and compared to the maximum plasma concentration (Cmax) achieved when the maximum tolerated dose (MTD) of each substance is administered to humans, by dividing the C100 with the Cmax. […] In the table below the values for MTD and Cmax are from the following references (mentioned in the same order as in the table): Steele, N. L. et al Cancer Chemother Pharmacol 67(6):1273-9 (2011), Kelly, K. K. et al J Clin Oncol 23:3923-3931 (2005), Furlan, A. et al Mol Med 17(5-6) 353-362 (2011), Fukutomi, A. et al Invest New Drugs 2011 Apr. 12, Yong, W. P. et al Ann Oncol 22(11) 2516-22 (2011), Garcia-Manero, G. et al. Blood 112: 981-989 (2008), Ryan, Q. C. et al J Clin Oncol 23(17): 3912-3922 (2005), Edelman, M. J. et al Cancer Chemother Pharmacol 51: 439-444, http://www.drugs.com/pro/buphenyl.html *Butyrate was administered in the prodrug form tributyrin.
# [1] = test system: TNF-a suppressed t-PA mRNA in HUVECs; assay: TNF-alpha suppression of t-PA mRNA in HUVEC: anti-inflammatory substances versus Givinostat; format: cell-based, human
# Method: HUVECs were treated with TNF-alpha (TNF-a) for 1 h and then optimal concentrations of the anti.inflammatory substances acetylsalicylic acid (ASA, 1 mM) and ibuprofen (IBU, 1 mM) was added. Givinostat was also added to the cells for comparison. Cells were harvested and t-PA mRNA levels analysed according to example 1.
# patients with epilepsy = conditions: cited from earlier work
# [2] = test system: t-PA mRNA in endothelial cells; assay: VPA dose-response on t-PA in the absence or presence of high TNF-alpha (10 ng/ml); format: cell-based, human
# Method: In an attempt to mimic the potentially highly inflamed conditions in the local microenvironment surrounding an atherosclerotic plaque, endothelial cells were exposed to a high concentration (10 ng/ml) of TNF-alpha for 24 hours and then VPA was added for an additional 24 h. Cells were treated and mRNA prepared as described in example 1.
smiles,measurement,setting,value
O=C(/C=C/c1cccc(S(=O)(=O)Nc2ccccc2)c1)NO [Belinostat],C100 tPA,t-PA mRNA in HUVECs,0.2 µM
CCN(CC)Cc1ccc2cc(COC(=O)Nc3ccc(C(=O)NO)cc3)ccc2c1.Cl [Givinostat],increase of t-PA,[1]; HUVEC treated with TNF-a,9 fold
same,effect on TNF-a mediated suppression of t-PA expression,"[1]; HUVEC, TNF-a 1 h then substance, ASA 1 mM, IBU 1 mM",completely reverse
same,C100 tPA,t-PA mRNA in HUVECs,0.05 µM
Nc1ccccc1NC(=O)c1ccc(CNc2nccc(-c3cccnc3)n2)cc1 [Mocetinostat],C100 tPA,t-PA mRNA in HUVECs,0.1 µM
"CCCC(CCC)C(=O)O [VPA, valproic acid]",lowering of the risk of atherothrombotic events,patients with epilepsy; patients with epilepsy (Olesen et al 2010),up to 40%
same,plasma levels typically obtained during anticonvulsive treatment,"patients with epilepsy; patients, anticonvulsive VPA treatment",350 to 850 µM
same,maximum efficacy in inducing t-PA,[2]; TNF-alpha (10 ng/ml) treated cells,about 50 fold
same,maximum efficacy in inducing t-PA,[2]; control cells (no TNF-alpha),about 10 fold
O=C(CCCCCCC(=O)Nc1ccccc1)NO [Vorinostat],C100 tPA,t-PA mRNA in HUVECs,0.1 µM
